{"source": "patent US20190292189A1", "about": "“LIM KINASE INHIBITORS” (VIRONGY, LLC, priority 2016, published 2019)", "experiment_in_all_cases": "Kinase profiling at 1 μM (Reaction Biology)", "assay_type_in_all_cases": "biochemical", "conditions_in_all_cases": "ATP 10 μM", "key": {"ABL1": {"biological_target": "T1, ABL1 (Homo sapiens, UniProt P00519)", "T1 construct": "purchased Reaction Biology Corporation", "T1 sequence (P00519 whole entry)": "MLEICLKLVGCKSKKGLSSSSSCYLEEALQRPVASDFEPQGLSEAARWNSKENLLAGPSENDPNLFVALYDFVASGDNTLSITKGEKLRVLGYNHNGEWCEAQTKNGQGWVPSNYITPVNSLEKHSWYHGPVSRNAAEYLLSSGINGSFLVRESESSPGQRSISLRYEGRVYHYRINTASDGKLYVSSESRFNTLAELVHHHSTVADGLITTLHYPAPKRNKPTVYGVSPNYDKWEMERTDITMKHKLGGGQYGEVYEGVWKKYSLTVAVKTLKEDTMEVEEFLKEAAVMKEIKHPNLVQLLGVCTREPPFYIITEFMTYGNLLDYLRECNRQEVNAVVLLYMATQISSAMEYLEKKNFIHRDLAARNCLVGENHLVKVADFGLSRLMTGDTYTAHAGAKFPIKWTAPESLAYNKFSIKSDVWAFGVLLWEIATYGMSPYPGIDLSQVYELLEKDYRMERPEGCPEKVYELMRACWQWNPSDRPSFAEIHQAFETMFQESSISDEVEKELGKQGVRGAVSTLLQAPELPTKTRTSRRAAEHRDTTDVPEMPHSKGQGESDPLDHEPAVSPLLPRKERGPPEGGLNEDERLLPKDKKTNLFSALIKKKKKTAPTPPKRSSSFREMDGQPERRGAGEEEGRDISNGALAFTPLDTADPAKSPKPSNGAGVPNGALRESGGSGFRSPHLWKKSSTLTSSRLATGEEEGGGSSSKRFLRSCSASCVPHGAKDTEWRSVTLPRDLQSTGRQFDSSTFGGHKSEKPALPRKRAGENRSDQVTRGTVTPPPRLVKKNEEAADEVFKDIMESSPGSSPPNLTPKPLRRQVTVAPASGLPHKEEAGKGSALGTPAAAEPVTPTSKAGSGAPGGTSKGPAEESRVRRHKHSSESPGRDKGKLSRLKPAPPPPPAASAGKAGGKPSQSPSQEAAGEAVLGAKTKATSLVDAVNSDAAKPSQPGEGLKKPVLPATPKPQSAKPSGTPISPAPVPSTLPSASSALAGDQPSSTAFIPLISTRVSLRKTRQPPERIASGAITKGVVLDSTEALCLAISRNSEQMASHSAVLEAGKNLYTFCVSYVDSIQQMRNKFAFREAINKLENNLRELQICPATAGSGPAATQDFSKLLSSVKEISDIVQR", "experimental": "(§1) Profiling was carried out at Reaction Biology Corporation following a protocol described at its website: http://www.reactionbiology.com/webapps/site/. The % data were the average from two determinations. ATP concentration used: 10 μM; Staurosporine was used as the positive control.\n(§2) Biochemical assays for all Limk inhibitors and kinase profiling were carried out in Reaction Biology Corporation and followed the protocols described on its website. […] Compounds were tested at 1 μM with duplicate experiments in profiling assays. […] Reactions were carried out at 10 μM ATP, 1 μM substrate cofilin, and 50 nM Limk1 (final concentrations)."}, "ERK2/MAPK1": {"biological_target": "T2, ERK2/MAPK1 (Homo sapiens, UniProt P28482)", "T2 construct": "purchased Reaction Biology Corporation", "experimental": "as §1, §2"}, "AKT2": {"biological_target": "T3, AKT2 (Homo sapiens, UniProt P31751)", "T3 construct": "purchased Reaction Biology Corporation", "experimental": "as §1, §2"}, "ZIPK/DAPK3": {"biological_target": "T4, ZIPK/DAPK3 (Homo sapiens, UniProt O43293)", "T4 construct": "purchased Reaction Biology Corporation", "experimental": "as §1, §2"}, "MLCK/MYLK": {"biological_target": "T5, MLCK/MYLK (Homo sapiens, UniProt Q15746)", "T5 construct": "purchased Reaction Biology Corporation", "experimental": "as §1, §2"}, "FGFR1": {"biological_target": "T6, FGFR1 (Homo sapiens, UniProt P11362)", "T6 construct": "purchased Reaction Biology Corporation", "T6 sequence (P11362 22-822)": "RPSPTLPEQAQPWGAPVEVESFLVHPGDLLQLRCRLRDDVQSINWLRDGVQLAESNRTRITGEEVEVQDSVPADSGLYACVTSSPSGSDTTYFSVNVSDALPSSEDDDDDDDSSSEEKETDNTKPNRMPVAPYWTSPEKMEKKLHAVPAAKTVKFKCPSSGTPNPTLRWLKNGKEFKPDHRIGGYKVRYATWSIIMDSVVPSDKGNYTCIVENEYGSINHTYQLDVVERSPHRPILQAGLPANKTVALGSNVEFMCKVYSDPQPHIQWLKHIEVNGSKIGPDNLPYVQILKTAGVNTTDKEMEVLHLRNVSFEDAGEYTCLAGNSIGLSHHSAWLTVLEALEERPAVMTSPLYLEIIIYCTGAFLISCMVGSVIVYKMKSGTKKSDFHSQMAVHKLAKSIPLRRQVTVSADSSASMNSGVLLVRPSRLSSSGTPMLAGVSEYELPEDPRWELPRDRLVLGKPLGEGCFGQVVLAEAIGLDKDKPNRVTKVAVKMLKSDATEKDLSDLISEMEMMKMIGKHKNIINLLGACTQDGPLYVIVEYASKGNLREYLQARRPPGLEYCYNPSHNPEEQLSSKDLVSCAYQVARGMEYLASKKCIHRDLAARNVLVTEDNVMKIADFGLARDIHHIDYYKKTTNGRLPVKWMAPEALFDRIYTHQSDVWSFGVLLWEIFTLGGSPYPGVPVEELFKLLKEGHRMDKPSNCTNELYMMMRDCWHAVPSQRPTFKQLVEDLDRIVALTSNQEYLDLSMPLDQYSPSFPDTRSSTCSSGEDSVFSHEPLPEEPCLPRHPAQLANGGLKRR", "experimental": "as §1, §2"}, "KDR/VEGFR2": {"biological_target": "T7, KDR/VEGFR2 (Homo sapiens, UniProt P35968)", "T7 construct": "purchased Reaction Biology Corporation", "experimental": "as §1, §2"}, "PKA": {"biological_target": "T8, PKA (Homo sapiens, UniProt P17612)", "T8 construct": "purchased Reaction Biology Corporation", "experimental": "as §1, §2"}, "ALK": {"biological_target": "T9, ALK (Homo sapiens, UniProt Q9UM73)", "T9 construct": "purchased Reaction Biology Corporation", "T9 sequence (Q9UM73 19-1620)": "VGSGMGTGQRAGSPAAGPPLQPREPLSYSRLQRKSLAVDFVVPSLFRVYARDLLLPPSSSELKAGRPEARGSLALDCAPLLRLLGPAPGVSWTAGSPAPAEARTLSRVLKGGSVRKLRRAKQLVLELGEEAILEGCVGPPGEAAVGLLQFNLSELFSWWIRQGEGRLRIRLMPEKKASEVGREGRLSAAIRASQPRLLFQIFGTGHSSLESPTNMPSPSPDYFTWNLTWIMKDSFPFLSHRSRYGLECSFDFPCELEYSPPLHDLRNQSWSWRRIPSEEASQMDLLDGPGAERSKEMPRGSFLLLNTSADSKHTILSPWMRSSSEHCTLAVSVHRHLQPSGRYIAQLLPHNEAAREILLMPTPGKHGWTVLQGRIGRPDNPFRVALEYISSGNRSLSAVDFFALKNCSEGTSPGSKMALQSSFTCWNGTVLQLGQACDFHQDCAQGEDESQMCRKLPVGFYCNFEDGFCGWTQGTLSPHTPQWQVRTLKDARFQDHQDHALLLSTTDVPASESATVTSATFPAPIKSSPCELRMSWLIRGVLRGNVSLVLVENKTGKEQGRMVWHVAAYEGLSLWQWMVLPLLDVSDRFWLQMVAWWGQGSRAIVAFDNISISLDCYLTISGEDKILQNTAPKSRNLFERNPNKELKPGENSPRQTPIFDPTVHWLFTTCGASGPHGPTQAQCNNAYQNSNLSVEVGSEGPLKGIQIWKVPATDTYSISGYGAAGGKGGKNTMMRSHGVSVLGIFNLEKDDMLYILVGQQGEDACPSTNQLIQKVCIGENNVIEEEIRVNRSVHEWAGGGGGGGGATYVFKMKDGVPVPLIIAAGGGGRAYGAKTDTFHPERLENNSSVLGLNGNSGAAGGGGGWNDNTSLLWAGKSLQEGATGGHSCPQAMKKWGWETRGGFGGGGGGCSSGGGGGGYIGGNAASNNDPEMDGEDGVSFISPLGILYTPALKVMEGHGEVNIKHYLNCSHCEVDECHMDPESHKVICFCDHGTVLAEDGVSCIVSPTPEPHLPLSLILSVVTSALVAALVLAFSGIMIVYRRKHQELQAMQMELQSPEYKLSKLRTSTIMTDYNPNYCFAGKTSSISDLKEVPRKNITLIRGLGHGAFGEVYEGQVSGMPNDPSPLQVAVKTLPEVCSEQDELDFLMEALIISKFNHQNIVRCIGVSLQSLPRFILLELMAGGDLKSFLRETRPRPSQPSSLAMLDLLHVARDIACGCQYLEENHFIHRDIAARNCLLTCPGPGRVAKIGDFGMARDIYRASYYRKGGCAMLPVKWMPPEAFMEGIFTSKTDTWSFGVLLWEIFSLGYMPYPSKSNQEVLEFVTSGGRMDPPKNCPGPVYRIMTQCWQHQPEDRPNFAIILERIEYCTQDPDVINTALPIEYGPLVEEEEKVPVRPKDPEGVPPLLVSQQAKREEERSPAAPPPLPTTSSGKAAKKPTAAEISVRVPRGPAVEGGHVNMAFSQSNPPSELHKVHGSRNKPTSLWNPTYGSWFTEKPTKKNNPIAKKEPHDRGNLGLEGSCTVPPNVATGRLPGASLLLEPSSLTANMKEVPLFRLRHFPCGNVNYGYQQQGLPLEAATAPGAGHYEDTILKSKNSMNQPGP", "experimental": "as §1, §2"}, "ROCK1": {"biological_target": "T10, ROCK1 (Homo sapiens, UniProt Q13464)", "T10 construct": "purchased Reaction Biology Corporation", "experimental": "as §1, §2"}, "G5K3b": {"biological_target": "T11, G5K3b (Homo sapiens, UniProt P49841)", "T11 construct": "purchased Reaction Biology Corporation", "experimental": "as §1, §2"}, "CDK5/p35": {"biological_target": "T12, CDK5/p35 (Homo sapiens, UniProt Q00535)", "T12 construct": "purchased Reaction Biology Corporation", "experimental": "as §1, §2"}, "ROCK2": {"biological_target": "T13, ROCK2 (Homo sapiens, UniProt O75116)", "T13 construct": "purchased Reaction Biology Corporation", "experimental": "as §1, §2"}, "CK1d": {"biological_target": "T14, CK1d (Homo sapiens, UniProt P48730)", "T14 construct": "purchased Reaction Biology Corporation", "experimental": "as §1, §2"}, "MRCKa/CDC42BPA": {"biological_target": "T15, MRCKa/CDC42BPA (Homo sapiens, UniProt Q5VT25)", "T15 construct": "purchased Reaction Biology Corporation", "experimental": "as §1, §2"}, "p70S6K/RPS6KB1": {"biological_target": "T16, p70S6K/RPS6KB1 (Homo sapiens, UniProt P23443)", "T16 construct": "purchased Reaction Biology Corporation", "experimental": "as §1, §2"}, "PAK2": {"biological_target": "T17, PAK2 (Homo sapiens, UniProt Q13177)", "T17 construct": "purchased Reaction Biology Corporation", "experimental": "as §1, §2"}, "CAMK2b": {"biological_target": "T18, CAMK2b (Homo sapiens, UniProt Q13554)", "T18 construct": "purchased Reaction Biology Corporation", "experimental": "as §1, §2"}, "BTK": {"biological_target": "T19, BTK (Homo sapiens, UniProt Q06187)", "T19 construct": "purchased Reaction Biology Corporation", "experimental": "as §1, §2"}, "JAK3": {"biological_target": "T20, JAK3 (Homo sapiens, UniProt P52333)", "T20 construct": "purchased Reaction Biology Corporation", "experimental": "as §1, §2"}, "NEK1": {"biological_target": "T21, NEK1 (Homo sapiens, UniProt Q96PY6)", "T21 construct": "purchased Reaction Biology Corporation", "experimental": "as §1, §2"}, "CDK2/cyclin A": {"biological_target": "T22, CDK2/cyclin A (Homo sapiens, UniProt P24941)", "T22 construct": "purchased Reaction Biology Corporation", "experimental": "as §1, §2"}, "SGK1": {"biological_target": "T23, SGK1 (Homo sapiens, UniProt O00141)", "T23 construct": "purchased Reaction Biology Corporation", "experimental": "as §1, §2"}, "TAOK1": {"biological_target": "T24, TAOK1 (Homo sapiens, UniProt Q7L7X3)", "T24 construct": "purchased Reaction Biology Corporation", "experimental": "as §1, §2"}, "TBK1": {"biological_target": "T25, TBK1 (Homo sapiens, UniProt Q9UHD2)", "T25 construct": "purchased Reaction Biology Corporation", "experimental": "as §1, §2"}, "TAK1": {"biological_target": "T26, TAK1 (Homo sapiens, UniProt O43318)", "T26 construct": "purchased Reaction Biology Corporation", "experimental": "as §1, §2"}, "c-5rc": {"biological_target": "T27, c-5rc (Homo sapiens, UniProt P12931)", "T27 construct": "purchased Reaction Biology Corporation", "experimental": "as §1, §2"}, "STK33": {"biological_target": "T28, STK33 (Homo sapiens, UniProt Q9BYT3)", "T28 construct": "purchased Reaction Biology Corporation", "experimental": "as §1, §2"}, "PLK2": {"biological_target": "T29, PLK2 (Homo sapiens, UniProt Q9NYY3)", "T29 construct": "purchased Reaction Biology Corporation", "experimental": "as §1, §2"}, "EGFR": {"biological_target": "T30, EGFR (Homo sapiens, UniProt P00533)", "T30 construct": "purchased Reaction Biology Corporation", "experimental": "as §1, §2"}, "IKKa/CHUK": {"biological_target": "T31, IKKa/CHUK (Homo sapiens, UniProt O15111)", "T31 construct": "purchased Reaction Biology Corporation", "T31 sequence (O15111 whole entry)": "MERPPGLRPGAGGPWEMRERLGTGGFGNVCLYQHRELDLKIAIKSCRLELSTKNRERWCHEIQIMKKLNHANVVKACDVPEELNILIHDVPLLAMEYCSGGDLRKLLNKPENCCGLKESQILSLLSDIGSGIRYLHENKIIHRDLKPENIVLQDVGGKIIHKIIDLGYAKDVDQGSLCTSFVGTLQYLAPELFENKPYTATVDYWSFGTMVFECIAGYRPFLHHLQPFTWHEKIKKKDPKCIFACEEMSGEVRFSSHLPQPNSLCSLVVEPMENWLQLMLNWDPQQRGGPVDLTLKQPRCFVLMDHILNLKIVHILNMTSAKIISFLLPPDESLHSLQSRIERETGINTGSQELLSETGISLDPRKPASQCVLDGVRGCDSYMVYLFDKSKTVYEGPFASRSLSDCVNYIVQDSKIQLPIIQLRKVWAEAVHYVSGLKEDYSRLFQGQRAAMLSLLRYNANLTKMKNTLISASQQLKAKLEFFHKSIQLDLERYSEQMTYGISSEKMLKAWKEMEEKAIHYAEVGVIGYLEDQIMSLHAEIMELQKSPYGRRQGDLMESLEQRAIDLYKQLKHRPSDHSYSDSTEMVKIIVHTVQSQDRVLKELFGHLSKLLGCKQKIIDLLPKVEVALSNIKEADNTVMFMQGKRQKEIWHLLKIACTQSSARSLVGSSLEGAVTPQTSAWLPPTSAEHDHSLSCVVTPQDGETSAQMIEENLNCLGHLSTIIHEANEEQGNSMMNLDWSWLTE", "experimental": "as §1, §2"}, "Aurora A": {"biological_target": "T32, Aurora A (Homo sapiens, UniProt O14965)", "T32 construct": "purchased Reaction Biology Corporation", "experimental": "as §1, §2"}, "JNK3": {"biological_target": "JNK3 (Homo sapiens, UniProt P53779)", "experimental": "as §1, §2"}, "IKKb/IKBKB": {"biological_target": "T33, IKKb/IKBKB (Homo sapiens, UniProt O14920)", "T33 construct": "purchased Reaction Biology Corporation", "experimental": "as §1, §2"}, "c-Kit": {"biological_target": "T34, c-Kit (Homo sapiens, UniProt P10721)", "T34 construct": "purchased Reaction Biology Corporation", "experimental": "as §1, §2"}, "WEE1": {"biological_target": "T35, WEE1 (Homo sapiens, UniProt P30291)", "T35 construct": "purchased Reaction Biology Corporation", "experimental": "as §1, §2"}, "AMPK(A1/B1/G1)": {"biological_target": "T36, AMPK(A1/B1/G1) (Homo sapiens, UniProt Q13131)", "T36 construct": "purchased Reaction Biology Corporation", "experimental": "as §1, §2"}, "IKKe/IKBKE": {"biological_target": "T37, IKKe/IKBKE (Homo sapiens, UniProt Q14164)", "T37 construct": "purchased Reaction Biology Corporation", "T37 sequence (Q14164 whole entry)": "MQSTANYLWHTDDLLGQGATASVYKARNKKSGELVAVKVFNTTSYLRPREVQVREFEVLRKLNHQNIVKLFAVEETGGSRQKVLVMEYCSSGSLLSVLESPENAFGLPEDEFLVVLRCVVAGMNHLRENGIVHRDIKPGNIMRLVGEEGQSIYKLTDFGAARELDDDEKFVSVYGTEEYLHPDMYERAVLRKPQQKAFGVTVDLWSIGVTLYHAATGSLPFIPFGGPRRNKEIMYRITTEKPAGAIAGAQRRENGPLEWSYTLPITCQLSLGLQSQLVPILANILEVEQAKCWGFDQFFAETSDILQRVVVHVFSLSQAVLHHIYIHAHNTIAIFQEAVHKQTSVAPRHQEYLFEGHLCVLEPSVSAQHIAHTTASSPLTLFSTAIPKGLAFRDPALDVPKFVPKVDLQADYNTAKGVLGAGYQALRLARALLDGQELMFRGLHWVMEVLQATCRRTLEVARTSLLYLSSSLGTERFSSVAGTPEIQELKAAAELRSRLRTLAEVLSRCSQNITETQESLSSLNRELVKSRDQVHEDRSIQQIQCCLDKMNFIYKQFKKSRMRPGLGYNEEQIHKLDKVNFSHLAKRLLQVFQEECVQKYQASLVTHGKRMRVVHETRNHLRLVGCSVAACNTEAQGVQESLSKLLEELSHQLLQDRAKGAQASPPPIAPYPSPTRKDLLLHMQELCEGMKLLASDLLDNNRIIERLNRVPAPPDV", "experimental": "as §1, §2"}}, "data": [{"smiles": "COC(=O)c1ccc2[nH]c(C3CCN(c4ncnc5[nH]cc(Cl)c45)CC3)nc2c1", "note": "[Compound R10015, Methyl 2-(1-(5-chloro-7H-pyrrolo[2,3-d]pyrimidin-4-yl)piperidin-4-yl)-1Hbenzo[d]imidazole-5-carboxylate]", "values": [{"measurement": "activity at 1 µM", "setting": "ABL1", "value": 89.2, "unit": "%"}, {"measurement": "activity at 1 µM", "setting": "ERK2/MAPK1", "value": 87.2, "unit": "%"}, {"measurement": "activity at 1 µM", "setting": "AKT2", "value": 73.1, "unit": "%"}, {"measurement": "activity at 1 µM", "setting": "ZIPK/DAPK3", "value": 98.5, "unit": "%"}, {"measurement": "activity at 1 µM", "setting": "MLCK/MYLK", "value": 83.3, "unit": "%"}, {"measurement": "activity at 1 µM", "setting": "FGFR1", "value": 86.5, "unit": "%"}, {"measurement": "activity at 1 µM", "setting": "KDR/VEGFR2", "value": 87.2, "unit": "%"}, {"measurement": "activity at 1 µM", "setting": "PKA", "value": 24, "unit": "%"}, {"measurement": "activity at 1 µM", "setting": "ALK", "value": 95.5, "unit": "%"}, {"measurement": "activity at 1 µM", "setting": "ROCK1", "value": 42.3, "unit": "%"}, {"measurement": "activity at 1 µM", "setting": "G5K3b", "value": 67.8, "unit": "%"}, {"measurement": "activity at 1 µM", "setting": "CDK5/p35", "value": 85.5, "unit": "%"}, {"measurement": "activity at 1 µM", "setting": "ROCK2", "value": 29.5, "unit": "%"}, {"measurement": "activity at 1 µM", "setting": "CK1d", "value": 85, "unit": "%"}, {"measurement": "activity at 1 µM", "setting": "MRCKa/CDC42BPA", "value": 96.5, "unit": "%"}, {"measurement": "activity at 1 µM", "setting": "p70S6K/RPS6KB1", "value": 10, "unit": "%"}, {"measurement": "activity at 1 µM", "setting": "PAK2", "value": 98.2, "unit": "%"}, {"measurement": "activity at 1 µM", "setting": "CAMK2b", "value": 90.8, "unit": "%"}, {"measurement": "activity at 1 µM", "setting": "BTK", "value": 90.2, "unit": "%"}, {"measurement": "activity at 1 µM", "setting": "JAK3", "value": 61.1, "unit": "%"}, {"measurement": "activity at 1 µM", "setting": "NEK1", "value": 67.2, "unit": "%"}, {"measurement": "activity at 1 µM", "setting": "CDK2/cyclin A", "value": 82.7, "unit": "%"}, {"measurement": "activity at 1 µM", "setting": "SGK1", "value": 61, "unit": "%"}, {"measurement": "activity at 1 µM", "setting": "TAOK1", "value": 54, "unit": "%"}, {"measurement": "activity at 1 µM", "setting": "TBK1", "value": 82, "unit": "%"}, {"measurement": "activity at 1 µM", "setting": "TAK1", "value": 82.4, "unit": "%"}, {"measurement": "activity at 1 µM", "setting": "c-5rc", "value": 92.4, "unit": "%"}, {"measurement": "activity at 1 µM", "setting": "STK33", "value": 56.5, "unit": "%"}, {"measurement": "activity at 1 µM", "setting": "PLK2", "value": 103, "unit": "%"}, {"measurement": "activity at 1 µM", "setting": "EGFR", "value": 93.2, "unit": "%"}, {"measurement": "activity at 1 µM", "setting": "IKKa/CHUK", "value": 90.5, "unit": "%"}, {"measurement": "activity at 1 µM", "setting": "Aurora A", "value": 60.3, "unit": "%"}, {"measurement": "activity at 1 µM", "setting": "JNK3", "value": 85.7, "unit": "%"}, {"measurement": "activity at 1 µM", "setting": "IKKb/IKBKB", "value": 85.1, "unit": "%"}, {"measurement": "activity at 1 µM", "setting": "c-Kit", "value": 81.3, "unit": "%"}, {"measurement": "activity at 1 µM", "setting": "WEE1", "value": 97.2, "unit": "%"}, {"measurement": "activity at 1 µM", "setting": "AMPK(A1/B1/G1)", "value": 76.6, "unit": "%"}, {"measurement": "activity at 1 µM", "setting": "IKKe/IKBKE", "value": 84.1, "unit": "%"}]}]}
